Assay results: ChEMBL document CHEMBL4627398 (J Med Chem, 2020)
Values after ≈ are worked out from the molar mass of the structure shown.

Tests used:
[1] = Metabolic stability in human liver microsomes incubated for 60 mins; assay type: ADME, Microsome; details: read-out: Stability
[2] = Metabolic stability in monkey liver microsomes incubated for 60 mins; assay type: ADME, Macaca mulatta, Microsome; details: rhesus monkey, read-out: Stability
[3] = Clearance in monkey at 0.1 mg/kg, iv; assay type: ADME, organism-based, Macaca mulatta; details: rhesus monkey, in vivo
[4] = Lipophilicity, logD of the compound at pH 7; assay type: physicochemical; details: buffer
[5] = Apparent permeability in human Caco2 cells; assay type: ADME, cell-based; details: Caco-2
[6] = Solubility of the compound in human Caco2 cells; assay type: ADME, cell-based; details: Caco-2 cells
[7] = Solubility of the compound in PBS buffer; assay type: physicochemical
[8] = Solubility of the compound in FaSSIF; assay type: physicochemical
[9] = Solubility of the compound in FeSSIF; assay type: physicochemical
[10] = Metabolic stability in rat liver microsomes incubated for 60 mins; assay type: ADME, Microsome; details: read-out: Stability
[11] = Metabolic stability in dog liver microsomes incubated for 60 mins; assay type: ADME, Canis lupus familiaris, Microsome; details: read-out: Stability
[12] = Metabolic stability in human hepatocytes incubated for 60 mins; assay type: ADME, cell-based, Hepatocyte; details: read-out: Stability
[13] = Metabolic stability in rat hepatocytes incubated for 60 mins; assay type: ADME, cell-based, Hepatocyte; details: read-out: Stability
[14] = Metabolic stability in monkey hepatocytes incubated for 60 mins; assay type: ADME, cell-based, Macaca mulatta, Hepatocyte; details: rhesus monkey, read-out: Stability
[15] = Terminal half life in rat at 1 mg/kg, iv; assay type: ADME, organism-based; details: in vivo, read-out: beta t1/2 (converted)
[16] = Terminal half life in dog at 0.3 mg/kg, iv; assay type: ADME, organism-based, Canis lupus familiaris; details: in vivo, read-out: beta t1/2 (converted)
[17] = Total clearance in rat at 1 mg/kg, iv; assay type: ADME, organism-based; details: in vivo
[18] = Total clearance in dog at 0.3 mg/kg, iv; assay type: ADME, organism-based, Canis lupus familiaris; details: in vivo
[19] = Volume of distribution at steady state in rat at 1 mg/kg, iv; assay type: ADME, organism-based; details: in vivo, read-out: Vdss
[20] = Volume of distribution at steady state in dog at 0.3 mg/kg, iv; assay type: ADME, organism-based, Canis lupus familiaris; details: in vivo, read-out: Vdss
[21] = MRT in rat at 1 mg/kg, iv; assay type: ADME, organism-based; details: in vivo
[22] = MRT in dog at 0.3 mg/kg, iv; assay type: ADME, organism-based, Canis lupus familiaris; details: in vivo
[23] = Tmax in rat at 10 mg/kg, po; assay type: ADME, organism-based; details: in vivo
[24] = Tmax in dog at 1 mg/kg, po; assay type: ADME, organism-based, Canis lupus familiaris; details: in vivo
[25] = Cmax in rat at 10 mg/kg, po; assay type: ADME, organism-based; design: dose 10 mg/kg, route oral; details: in vivo
[26] = Cmax in dog at 1 mg/kg, po; assay type: ADME, organism-based, Canis lupus familiaris; design: dose 1 mg/kg, route oral; details: in vivo
[27] = Oral bioavailability in rat at 10 mg/kg; assay type: ADME, organism-based; details: in vivo
[28] = Oral bioavailability in dog at 1 mg/kg; assay type: ADME, organism-based, Canis lupus familiaris; details: in vivo

Question: For `CC1CN(C(=O)CC#N)C12CCCN(c1ncnc3[nH]ccc13)C2` (stereo not given), which remaining at 1 h [1] is on record?
Answer: 73.4%

Question: And the remaining at 1 h [2]?
Answer: 25.1%

Question: What does the source list for `N#CCC(=O)N1CCC12CCCN(c1ncnc3[nH]ccc13)C2` (single isomer, unassigned)?
Answer: remaining at 1 h [1]: 93.4%; remaining at 1 h [2]: 85.2%; clearance [3]: 12.7 mL/min/kg

Question: With `N#CCC(=O)N1CC(F)(F)C12CCN(c1ncnc3[nH]ccc13)C2` (single isomer, unassigned) as the molecule, how does the remaining at 1 h [1] read?
Answer: 99.4%

Question: And the remaining at 1 h [2]?
Answer: 95.4%

Question: And the clearance [3]?
Answer: 5.83 mL/min/kg

Question: For `N#CCC(=O)N1CC(F)(F)C12CCCN(c1ncnc3[nH]ccc13)C2` (single isomer, unassigned), which remaining at 1 h [1] is on record?
Answer: 88.4%

Question: And the remaining at 1 h [2]?
Answer: 64.6%

Question: With `N#CCC(=O)N1CCCC12CCCN(c1ncnc3[nH]ccc13)C2` (single isomer, unassigned) as the molecule, how does the remaining at 1 h [1] read?
Answer: 75.7%

Question: What about the remaining at 1 h [2] of the same molecule?
Answer: 29.4%

Question: For `C[C@H]1CN(C(=O)CC#N)[C@]12CCN(c1ncnc3[nH]ccc13)C2` [DELGOCITINIB], which remaining at 1 h [1] is on record?
Answer: 97.4%

Question: And the remaining at 1 h [2]?
Answer: 99.6%

Question: What about the clearance [3] of the same molecule?
Answer: 4.83 mL/min/kg

Question: And the logD [4]?
Answer: 0.6

Question: And the Papp [5]?
Answer: 0.033 ×10⁻⁶ cm/s

Question: What about the solubility [6] of the same molecule?
Answer: 1 µM (≈ 0.31 µg/mL)

Question: And the solubility [7]?
Answer: > 95 µM

Question: What about the solubility [8] of the same molecule?
Answer: > 475 µM

Question: What about the solubility [9] of the same molecule?
Answer: > 475 µM

Question: And the remaining at 1 h [10]?
Answer: 90.2%

Question: What about the remaining at 1 h [11] of the same molecule?
Answer: 97.2%

Question: What about the remaining at 1 h [12] of the same molecule?
Answer: 99.3%

Question: What about the remaining at 1 h [13] of the same molecule?
Answer: 94.7%

Question: And the remaining at 1 h [14]?
Answer: 84.8%

Question: And the half-life [15]?
Answer: 1.7 h

Question: And the half-life [16]?
Answer: 2.3 h

Question: What about the clearance [17] of the same molecule?
Answer: 35 mL/min/kg

Question: And the clearance [18]?
Answer: 6.17 mL/min/kg

Question: And the Vd [19]?
Answer: 2.1 L/kg

Question: And the Vd [20]?
Answer: 1.2 L/kg

Question: What about the MRT [21] of the same molecule?
Answer: 1 h

Question: What about the MRT [22] of the same molecule?
Answer: 3.2 h

Question: What about the Tmax [23] of the same molecule?
Answer: 1.5 h

Question: What about the Tmax [24] of the same molecule?
Answer: 0.9 h

Question: And the Cmax [25]?
Answer: 2.5 ng/mL

Question: What about the Cmax [26] of the same molecule?
Answer: 1.9 ng/mL

Question: What about the bioavailability [27] of the same molecule?
Answer: 78%

Question: And the bioavailability [28]?
Answer: 124%
